According to patent publication US20260001871A1, “TRIAZOLE DERIVATIVES AS MODULATORS OF MAS-RELATED G-PROTEIN RECEPTOR D” (ESCIENT PHARMACEUTICALS, INC., priority 2022, published 2026):

Target: human MRGPRD (Homo sapiens, UniProt Q8TDS7)
Assay: MRGPRD antagonist activity, IP-One HTRF assay in CHO cells stably expressing human MRGPRD (versus 100 μM β-Alanine agonist)
Assay type: cell-based
Method in brief: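 CHO cells stably expressing human MRGPRD, plated overnight at 37 °C, were treated with antagonist plus agonist in Tris-HCl/NaCl/LiCl buffer pH 8, incubated 1 h at 37 °C then 1 h at room temperature. IP-1 accumulation read by HTRF; IC50 and percent antagonism of maximum efficacy averaged, SEM reported.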

human MRGPRD, sequence (Q8TDS7 whole entry): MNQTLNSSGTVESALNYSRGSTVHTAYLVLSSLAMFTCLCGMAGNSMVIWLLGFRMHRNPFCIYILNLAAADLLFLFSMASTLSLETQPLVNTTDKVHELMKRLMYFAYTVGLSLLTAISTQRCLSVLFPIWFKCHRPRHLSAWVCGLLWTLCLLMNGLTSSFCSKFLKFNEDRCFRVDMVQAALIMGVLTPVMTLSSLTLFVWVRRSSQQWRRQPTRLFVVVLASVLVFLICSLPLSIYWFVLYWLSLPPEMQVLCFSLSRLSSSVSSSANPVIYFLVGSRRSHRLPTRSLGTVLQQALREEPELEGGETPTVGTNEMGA

| Structure (SMILES) | IC50 [nM] |
| --- | --- |
| Cc1cc(-c2ccc(-n3nnc(C(=O)Nc4ccncc4)c3C3CC3)cc2)c(C)s1 [Compound 7-121] | 500 to 1000 |
| O=C(Nc1ccncc1)c1nnn(-c2ccc(-c3cccc(C(F)F)c3)cc2)c1C1CC1 [Compound 7-122] | 500 to 1000 |
| O=C(Nc1ccncc1)c1nnn(-c2ccc(-c3cnn(CC(F)(F)F)c3)cc2)c1C1CC1 [Compound 7-123] | 500 to 1000 |
| Cn1cnc(-c2ccc(-n3nnc(C(=O)Nc4ccncc4)c3C3CC3)cc2)c1 [Compound 7-124] | 500 to 1000 |
| O=C(Nc1ccncc1)c1nnn(-c2ccc(-c3ccns3)cc2)c1C1CC1 [Compound 7-125] | 500 to 1000 |
| Cn1cc(-c2ccc(-n3nnc(C(=O)Nc4ccncc4)c3C3CC3)cc2)cn1 [Compound 7-126] | 500 to 1000 |
| O=C(Nc1ccncc1)c1nnn(-c2ccc(-c3ccc(C4CCC4)cc3)cc2)c1C1CC1 [Compound 7-127] | 500 to 1000 |
| Cc1[nH]nc(-c2ccc(-n3nnc(C(=O)Nc4ccncc4)c3C3CC3)cc2)c1Cl [Compound 7-128] | 500 to 1000 |
| O=C(Nc1ccncc1)c1nnn(-c2ccc(-c3ccccc3F)cc2)c1C1CC1 [Compound 7-129] | 500 to 1000 |
| O=C(Nc1ccncc1)c1nnn(-c2ccc(-c3n[nH]cc3F)cc2)c1C1CC1 [Compound 7-130] | 500 to 1000 |
| CC(C)Oc1ccc(-c2ccc(-n3nnc(C(=O)Nc4ccncc4)c3C3CC3)cc2)cc1 [Compound 7-131] | 500 to 1000 |
| Cc1cc(-c2ccc(-n3nnc(C(=O)Nc4ccncc4)c3C3CC3)cc2)n(C)n1 [Compound 7-132] | 500 to 1000 |
| Cc1nn(C)c(CO)c1-c1ccc(-n2nnc(C(=O)Nc3ccncc3)c2C2CC2)cc1 [Compound 7-133] | 500 to 1000 |
| CC(=O)c1ccccc1-c1ccc(-n2nnc(C(=O)Nc3ccncc3)c2C2CC2)cc1 [Compound 7-134] | 500 to 1000 |
| NS(=O)(=O)c1cccc(-c2ccc(-n3nnc(C(=O)Nc4ccncc4)c3C3CC3)cc2)c1 [Compound 7-135] | 500 to 1000 |
| C#Cc1cccc(-c2ccc(-n3nnc(C(=O)Nc4ccncc4)c3C3CC3)cc2)c1 [Compound 7-136] | 500 to 1000 |

| Structure (SMILES) | IC50 [nM] |
| --- | --- |
| O=C(Nc1ccncc1)c1nnn(-c2ccc(-c3cnn(C(F)F)c3)cc2)c1C1CC1 [Compound 7-137] | 500 to 1000 |
| COc1cc(-c2ccc(-n3nnc(C(=O)Nc4ccncc4)c3C3CC3)cc2)n[nH]1 [Compound 7-138] | 500 to 1000 |
| N#Cc1cccc(-c2ccc(-n3nnc(C(=O)Nc4ccncc4)c3C3CC3)cc2)c1 [Compound 7-139] | 500 to 1000 |
| Cc1csc(-c2ccc(-n3nnc(C(=O)Nc4ccncc4)c3C3CC3)cc2)n1 [Compound 7-140] | 500 to 1000 |
| NS(=O)(=O)c1ccc(-c2ccc(-n3nnc(C(=O)Nc4ccncc4)c3C3CC3)cc2)cc1 [Compound 7-141] | 500 to 1000 |
| CC(C)(C)n1cc(-c2ccc(-n3nnc(C(=O)Nc4ccncc4)c3C3CC3)cc2)cn1 [Compound 7-142] | 500 to 1000 |
| N#Cc1c[nH]nc1-c1ccc(-n2nnc(C(=O)Nc3ccncc3)c2C2CC2)cc1 [Compound 7-143] | 500 to 1000 |
| Cn1ncc(-c2ccc(-n3nnc(C(=O)Nc4ccncc4)c3C3CC3)cc2)c1-c1ccccc1 [Compound 7-144] | 500 to 1000 |
| O=C(Nc1ccncc1)c1nnn(-c2ccc(-c3ccccc3Cl)cc2)c1C1CC1 [Compound 7-145] | 500 to 1000 |
| CN(C)Cc1cccc(-c2ccc(-n3nnc(C(=O)Nc4ccncc4)c3C3CC3)cc2)c1 [Compound 7-146] | 500 to 1000 |
| CC(=O)c1ccc(-c2ccc(-n3nnc(C(=O)Nc4ccncc4)c3C3CC3)cc2)s1 [Compound 7-147] | 500 to 1000 |
| CC(C)Oc1cccc(-c2ccc(-n3nnc(C(=O)Nc4ccncc4)c3C3CC3)cc2)c1 [Compound 7-148] | 500 to 1000 |
| O=C(Nc1ccncc1)c1nnn(-c2ccc(-c3ccc(CC4CC4)cc3)cc2)c1C1CC1 [Compound 7-149] | 500 to 1000 |
| C#Cc1ccc(-c2ccc(-n3nnc(C(=O)Nc4ccncc4)c3C3CC3)cc2)cc1 [Compound 7-150] | 500 to 1000 |
| O=C(Nc1ccncc1)c1nnn(-c2ccc(-c3ccccc3CO)cc2)c1C1CC1 [Compound 7-151] | 500 to 1000 |
